Source: PubChem BioAssay AID1963850 (Molecular Pharmacology Branch, DTP, NCI, 2024)
pIC50: −log10 of the molar value.

System: 192522-019-R-J2-PDC complex tumor spheroid viability
Assay: Anticancer human tumor 192522-019-R-J2-PDC patient-derived colon adenocarcinoma cell line growth inhibition [POLQ]
Settings: for pIC50: curve of first compound; for viability, T/C: stronger effect = lower value
In short: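 PDC + HUVEC + MSC complex spheroids; POLQ inhibitors ± partner drugs; top conc. at/near clinical Cmax, else 10 microM (SN-38 1 microM), half-log dilutions; 37 degrees C, 5% CO2.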

[1] = second compound 0.0316 µM, first compound 0.0316 µM
[2] = second compound 0.0316 µM, first compound 0.1 µM
[3] = second compound 0.0316 µM, first compound 0.316 µM
[4] = second compound 0.0316 µM, first compound 1 µM
[5] = second compound 0.0316 µM, first compound 3.16 µM
[6] = second compound 0.0316 µM, first compound 10 µM
[7] = second compound 0.1 µM, first compound 0.0316 µM
[8] = second compound 0.1 µM, first compound 0.1 µM
[9] = second compound 0.1 µM, first compound 0.316 µM
[10] = second compound 0.1 µM, first compound 1 µM
[11] = second compound 0.1 µM, first compound 3.16 µM
[12] = second compound 0.1 µM, first compound 10 µM
[13] = second compound 0.316 µM, first compound 0.0316 µM
[14] = second compound 0.316 µM, first compound 0.1 µM
[15] = second compound 0.316 µM, first compound 0.316 µM
[16] = second compound 0.316 µM, first compound 1 µM
[17] = second compound 0.316 µM, first compound 3.16 µM
[18] = second compound 0.316 µM, first compound 10 µM
[19] = second compound 1 µM, first compound 0.0316 µM
[20] = second compound 1 µM, first compound 0.1 µM
[21] = second compound 1 µM, first compound 0.316 µM
[22] = second compound 1 µM, first compound 1 µM
[23] = second compound 1 µM, first compound 3.16 µM
[24] = second compound 1 µM, first compound 10 µM
[25] = second compound 3.16 µM, first compound 0.0316 µM
[26] = second compound 3.16 µM, first compound 0.1 µM
[27] = second compound 3.16 µM, first compound 0.316 µM
[28] = second compound 3.16 µM, first compound 1 µM
[29] = second compound 3.16 µM, first compound 3.16 µM
[30] = second compound 3.16 µM, first compound 10 µM
[31] = second compound 10 µM, first compound 0.0316 µM
[32] = second compound 10 µM, first compound 0.1 µM
[33] = second compound 10 µM, first compound 0.316 µM
[34] = second compound 10 µM, first compound 1 µM
[35] = second compound 10 µM, first compound 3.16 µM
[36] = second compound 10 µM, first compound 10 µM
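Also: spheroids exposed to drugs for seven days before reading.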
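For viability, T/C in this document: 100% = DMSO vehicle control viability in luminescence.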

CCCS(=O)(=O)Nc1ccc(F)c(C(=O)c2c[nH]c3ncc(-c4ccc(Cl)cc4)cc23)c1F + Nc1ccc(C#CCN(C(=O)Cc2ncc(C(F)(F)F)cc2C(F)(F)F)c2ccc(F)cc2)nn1
pIC50 (second compound 0.0316 µM): < 5.00 | pIC50 (second compound 0.1 µM): < 5.00 | pIC50 (second compound 0.316 µM): < 5.00 | pIC50 (second compound 1 µM): < 5.00 | pIC50 (second compound 3.16 µM): < 5.00 | pIC50 (second compound 10 µM): < 5.00 | viability, T/C [1]: 109% | viability, T/C [2]: 95.2% | viability, T/C [3]: 109% | viability, T/C [4]: 98.3% | viability, T/C [5]: 121% | viability, T/C [6]: 66.9% | viability, T/C [7]: 106% | viability, T/C [8]: 107% | viability, T/C [9]: 104% | viability, T/C [10]: 99.9% | viability, T/C [11]: 101% | viability, T/C [12]: 67.9% | viability, T/C [13]: 102% | viability, T/C [14]: 98.7% | viability, T/C [15]: 99.4% | viability, T/C [16]: 102% | viability, T/C [17]: 101% | viability, T/C [18]: 83.6% | viability, T/C [19]: 98% | viability, T/C [20]: 107% | viability, T/C [21]: 97.9% | viability, T/C [22]: 110% | viability, T/C [23]: 125% | viability, T/C [24]: 94.1% | viability, T/C [25]: 101% | viability, T/C [26]: 102% | viability, T/C [27]: 98.4% | viability, T/C [28]: 99.9% | viability, T/C [29]: 113% | viability, T/C [30]: 86.6% | viability, T/C [31]: 105% | viability, T/C [32]: 106% | viability, T/C [33]: 99.6% | viability, T/C [34]: 110% | viability, T/C [35]: 118% | viability, T/C [36]: 78.1%

CNCc1ccc(-c2[nH]c3cc(F)cc4c3c2CCNC4=O)cc1 + Nc1ccc(C#CCN(C(=O)Cc2ncc(C(F)(F)F)cc2C(F)(F)F)c2ccc(F)cc2)nn1
pIC50 (second compound 0.0316 µM): < 5.00 | pIC50 (second compound 0.1 µM): < 5.00 | pIC50 (second compound 0.316 µM): < 5.00 | pIC50 (second compound 1 µM): < 5.00 | pIC50 (second compound 3.16 µM): < 5.00 | pIC50 (second compound 10 µM): < 5.00 | viability, T/C [1]: 103% | viability, T/C [2]: 106% | viability, T/C [3]: 102% | viability, T/C [4]: 113% | viability, T/C [5]: 122% | viability, T/C [6]: 111% | viability, T/C [7]: 105% | viability, T/C [8]: 98.7% | viability, T/C [9]: 110% | viability, T/C [10]: 102% | viability, T/C [11]: 104% | viability, T/C [12]: 105% | viability, T/C [13]: 107% | viability, T/C [14]: 106% | viability, T/C [15]: 96.5% | viability, T/C [16]: 103% | viability, T/C [17]: 106% | viability, T/C [18]: 107% | viability, T/C [19]: 119% | viability, T/C [20]: 100% | viability, T/C [21]: 105% | viability, T/C [22]: 104% | viability, T/C [23]: 111% | viability, T/C [24]: 107% | viability, T/C [25]: 103% | viability, T/C [26]: 108% | viability, T/C [27]: 95.3% | viability, T/C [28]: 104% | viability, T/C [29]: 110% | viability, T/C [30]: 101% | viability, T/C [31]: 108% | viability, T/C [32]: 101% | viability, T/C [33]: 105% | viability, T/C [34]: 102% | viability, T/C [35]: 110% | viability, T/C [36]: 106%

COc1ccc([C@@H](O)c2cc(-c3ncnc4cc(N5CCOCC5)ccc34)c(F)cc2Cl)nn1 + Nc1ccc(C#CCN(C(=O)Cc2ncc(C(F)(F)F)cc2C(F)(F)F)c2ccc(F)cc2)nn1
pIC50 (second compound 0.0316 µM): < 5.00 | pIC50 (second compound 0.1 µM): < 5.00 | pIC50 (second compound 0.316 µM): < 5.00 | pIC50 (second compound 1 µM): < 5.00 | pIC50 (second compound 3.16 µM): < 5.00 | pIC50 (second compound 10 µM): < 5.00 | viability, T/C [1]: 116% | viability, T/C [2]: 97.3% | viability, T/C [3]: 93.7% | viability, T/C [4]: 85.8% | viability, T/C [5]: 75.8% | viability, T/C [6]: 55.4% | viability, T/C [7]: 106% | viability, T/C [8]: 97.4% | viability, T/C [9]: 98.7% | viability, T/C [10]: 90.1% | viability, T/C [11]: 86.2% | viability, T/C [12]: 65.5% | viability, T/C [13]: 100% | viability, T/C [14]: 101% | viability, T/C [15]: 102% | viability, T/C [16]: 102% | viability, T/C [17]: 75.3% | viability, T/C [18]: 59.9% | viability, T/C [19]: 102% | viability, T/C [20]: 104% | viability, T/C [21]: 98.1% | viability, T/C [22]: 90.8% | viability, T/C [23]: 93.2% | viability, T/C [24]: 75% | viability, T/C [25]: 107% | viability, T/C [26]: 101% | viability, T/C [27]: 99% | viability, T/C [28]: 93.6% | viability, T/C [29]: 84.1% | viability, T/C [30]: 65.9% | viability, T/C [31]: 104% | viability, T/C [32]: 111% | viability, T/C [33]: 102% | viability, T/C [34]: 102% | viability, T/C [35]: 82% | viability, T/C [36]: 73.2%

COc1cccc(OCCCN)c1-c1cc(Nc2cnc(C#N)cn2)n[nH]1 + Nc1ccc(C#CCN(C(=O)Cc2ncc(C(F)(F)F)cc2C(F)(F)F)c2ccc(F)cc2)nn1
pIC50 (second compound 0.0316 µM): 7.57 | pIC50 (second compound 0.1 µM): 7.59 | pIC50 (second compound 0.316 µM): 7.57 | pIC50 (second compound 1 µM): 7.55 | pIC50 (second compound 3.16 µM): 7.54 | pIC50 (second compound 10 µM): 7.57 | viability, T/C (second compound 0.0316 µM, first compound 0.00316 µM): 102% | viability, T/C (second compound 0.0316 µM, first compound 0.01 µM): 86% | viability, T/C [1]: 44.1% | viability, T/C [2]: 37.4% | viability, T/C [3]: 40.7% | viability, T/C [4]: 35.3% | viability, T/C (second compound 0.1 µM, first compound 0.00316 µM): 102% | viability, T/C (second compound 0.1 µM, first compound 0.01 µM): 78.4% | viability, T/C [7]: 43.5% | viability, T/C [8]: 39.4% | viability, T/C [9]: 35% | viability, T/C [10]: 36.3% | viability, T/C (second compound 0.316 µM, first compound 0.00316 µM): 102% | viability, T/C (second compound 0.316 µM, first compound 0.01 µM): 81.4% | viability, T/C [13]: 45.2% | viability, T/C [14]: 38.3% | viability, T/C [15]: 37.5% | viability, T/C [16]: 39.2% | viability, T/C (second compound 1 µM, first compound 0.00316 µM): 96.8% | viability, T/C (second compound 1 µM, first compound 0.01 µM): 87.5% | viability, T/C [19]: 45.7% | viability, T/C [20]: 40.6% | viability, T/C [21]: 40.1% | viability, T/C [22]: 40.5% | viability, T/C (second compound 3.16 µM, first compound 0.00316 µM): 101% | viability, T/C (second compound 3.16 µM, first compound 0.01 µM): 85.2% | viability, T/C [25]: 47.2% | viability, T/C [26]: 44.6% | viability, T/C [27]: 45.3% | viability, T/C [28]: 40.9% | viability, T/C (second compound 10 µM, first compound 0.00316 µM): 99.5% | viability, T/C (second compound 10 µM, first compound 0.01 µM): 66.7% | viability, T/C [31]: 46.7% | viability, T/C [32]: 43.1% | viability, T/C [33]: 52.2% | viability, T/C [34]: 46.8%
